{"source": "patent US20240383953A1", "about": "“NOVEL NAN[…] NANOG PRION-LIKE REPEATS” (BAYLOR COLLEGE OF MEDICINE, priority 2021, published 2024)", "key": {"[1]": {"assay": "WR peptide aggregation kinetics by ThT fluorescence", "assay_type": "physicochemical", "description": "(§1) FIGS. 7A-7H provide data and illustrations related to the fibrillation propensities of NANOG WR-derived peptides. FIG. 7A illustrates NANOG domain organization and the human and mouse NANOG WR-derived peptides used in Example 2. […] Right panels show aggregation kinetics for peptides 1-3 w (top) and 1-4 w (bottom) after 1 min equilibration. Similar results were obtained from two independent experiments. […] Similar results were obtained from two independent experiments. […] Similar results were obtained from two independent experiments. […] Similar results were obtained from two independent preparations.\n(§2) Amino acids of the synthesized peptides were classified into aromatic, polar, charged and structure breakers (FIG. 7B). Applicant observed a striking degree of correlation between amino acid type distribution, and the peptide's solubilities and aggregation propensities, as monitored by Thioflavin T (ThT, amyloid binding dye) aggregation kinetics assay (FIGS. 7B-7D). Formation of β-sheet fibrils were confirmed by CD spectroscopy and Transmission Electron Microscopy. Hydrophobic/aromatic residues as well as polar residues such as Gln and Asn are commonly found in amyloid or prion-like domains. […] Aggregation kinetics was rapid; 1-4w reached maximal ThT fluorescence within 2-3 min and 1-3w ˜20 min (FIG. 7D)."}, "[2]": {"assay": "WR peptide solubility (supernatant to pellet ratio after centrifugation)", "assay_type": "physicochemical", "details": "0.1 and 0.2 mg/mL", "description": "as §1, with “preparations. […]” for “preparations.”\nas §2, with “domains. On the other hand, charged and ‘structure breaker’ residues such as Gly and Pro contribute to the peptide's higher solubility.” for “domains.”"}, "[3]": {"test_system": "GATA6-AF488 and GATA6-AF647", "assay": "FCCS DNA bridging by peptides", "assay_type": "binding", "description": "(§3) Basic residues, 3 Arg and 2 Lys, were incorporated for nucleic acid recognition. […] Similar results were obtained from two independent experiments. FIG. 8C (left panels) show photon bursts distribution of dsDNAs alone (GATA6-AF488 and GATA6-AF647; top) or with 7.5 μM (0.03 mg/mL) 1-4wRK peptide (bottom). Middle panels of FIG. 8C show FCCS curves for corresponding photon fluctuations shown in the left panels. […] Similar results were obtained from three independent experiments. […] Similar results were obtained from three independent experiments. […] Error bars were calculated from three independent measurements. […] Similar results were obtained from two independent experiments.\nThT binding to amyloid β-sheet emits maximally at ˜490 nm. Similar results were obtained from 2 independent experiments. […]\nApplicant also tested the minipeptides' ability to bring together independent DNA molecules in solution. Using Fluorescence Cross-Correlation Spectroscopy (FCCS), Applicant observed an absence of cross-correlation between differentially fluorescently labeled DNAs (GATA6-AF488 and GATA6-AF647) without the peptide. […]\nThe significant 1-3wRK DNA-bridging competency was further confirmed by FCCS titration data and burst analysis, where Applicant observed cross-correlation even at ˜30 nM 1-3wRRK. […] Applicant demarcated the LLPS regimes using turbidity assay (UV absorbance at 350 nm; FIG. 8J). […]"}, "[4]": {"test_system": "GATA6 dsDNA", "assay": "Fluorescence polarization binding measurements", "details": "Hill binding equation, mean±SD", "source_text": "(§4) ThT binding to amyloid β-sheet emits maximally at ˜490 nm. Similar results were obtained from 2 independent experiments. […] Similar results were obtained from 2 independent experiments.\nSince 1-3wRRK became soluble and much less aggregation-prone on its own, Applicant determined if the WR repeat (steric zipper region) was affected by changes in physical properties and still contributed towards recognizing DNA. Applicant compared its DNA binding capability to TAT and 1-4wRK by EMSA and fluorescence polarization measurements (FIGS. 9G-9H). Applicant observed that 1-3wRRK binds DNA more effectively than 1-4wRK, mostly likely due to the extra basic residues (FIGS. 8B, 9G, and 9H).\n(§5) By EMSA, almost all DNAs were bound at […] or 0.03 mg/mL 1-3wRRK. […] This was further corroborated by fluorescence polarization measurements."}, "[5]": {"test_system": "fluorescent proteins h6GeGFP and h6GmCherry", "assay": "Co-partitioning with fluorescent proteins", "details": "h6GeGFP and h6GmCherry 5 μM", "description": "as §3\nApplicant used burst analysis to quantify sizes of the oligomeric species. The average fluctuations were assumed to represent monomeric species, and any degree of deviations from average were characterized as the oligomeric states. Applicant observed numerous heterogeneous oligomeric states that increased in molecular sizes with increasing peptide concentration (FIGS. 8D-8E). Because NANOG is also known as a ‘molecular hub’ protein capable of interactions with many proteins with its WR domain, Applicant tested whether the WR peptide mimetics could non-specifically recruit random proteins (e.g., fluorescent proteins h6GeGFP and h6GmCherry for convenient visualization). […]"}, "[6]": {"test_system": "ssDNA (TG)6 and ssRNA (UUAGGG)4-AF488/AF594", "assay": "fEMSA with single stranded nucleic acids", "assay_type": "binding", "details": "immobilized in the gel wells", "description": "as §3\n(§6) Applicant observed nucleic acid interactions by fluorescence electrophoretic mobility shift assays (fEMSA). […] Moreover, the 1-4wRK peptide was also potent in recognizing single stranded DNA (ssDNA (TG)6) and RNA (ssRNA (UUAGGG)4-AF488/AF594)."}, "[7]": {"test_system": "DNA", "assay": "LLPS turbidity assay (UV absorbance at 350 nm)", "assay_type": "physicochemical", "description": "as §4\nThe significant 1-3wRK DNA-bridging competency was further confirmed by FCCS titration data and burst analysis, where Applicant observed cross-correlation even at ˜30 nM 1-3wRRK. Applicant next investigated whether the peptides' ability to form nano-assemblies also correlated with their capacity to drive mesoscale condensates. Applicant demarcated the LLPS regimes using turbidity assay (UV absorbance at 350 nm; FIG. 8J). The LLPS data (presented in mg/mL concentration unit in FIG. 8J) reflected the behaviors observed at nanoscale level."}, "[8]": {"target": "dsDNA GATA6-AF488/GATA6-AF647", "assay": "fEMSA with dsDNA", "assay_type": "binding", "description": "as §3, §4, §6, §5"}, "[9]": {"test_system": "Gata6-AF488 and Gata6-AF647 DNA", "assay": "FCCS DNA bridging by NANOG", "assay_type": "binding", "description": "(§7) FIGS. 6A-6G provide data related to intermolecular DNA bridging through NANOG assemblies. […] The peak at EFRET ˜0 corresponds to AF488-conjugated unbound/bound DNA. FIGS. 6E1-4 show representative cross-correlation FCCS curves of Gata6-AF488 and Gata6-AF647 with various concentrations of WT ((i) 0 nM; (ii) 63 nM; (iii) 875 nM) and W8A mutant ((iv) 875 nM). […] Nad and diffusion coefficients were derived and calculated from FCCS fits (Methods). […] Through prion-like assembly, NANOG can initiate intragenomic (promoter-enhancer) contacts, as well as connecting distant intergenomic loci to form superenhancer clusters with other TFs and coactivators (green/yellow).\nTo further validate NANOG-dependent DNA bridging, Applicant resorted to fluorescence cross-correlation technique (FCCS). Binding of individual DNAs (differentially labeled with AF488 and AF647) to form a complex would result in correlated fluorescence signals.\nFCCS experiments with various NANOG concentrations confirmed cross-correlation with as little as ˜30 nM WT NANOG (FIG. 6F). The increase in cross-correlated particles coincided with a decrease in molecular complex diffusion coefficient (bright lower line, FIG. 6F). Without being bound by theory, the decrease in cross-correlated particles at high NANOG concentrations may reflect competition for DNA with excess NANOG."}, "[10]": {"test_system": "Gata6-AF488 and Gata6-AF647 DNA", "assay": "Intermolecular diffusion smFRET DNA bridging", "assay_type": "binding", "details": "250 nM NANOG WT", "description": "as §7\nTo test the DNA bridging hypothesis, Applicant performed single molecule FRET (smFRET) diffusion experiments. Intermolecular diffusion smFRET is challenging due to low chance encounters at dilute pM concentrations. Gata6 DNAs were independently labeled with AF488 or AF647. […] However, in the presence of 250 nM NANOG WT."}}, "note": "pKd: −log10 of the molar value. Read-outs that look alike come from different tables or passages of the source. Residues, ends and D or L forms follow the SMILES beside them.", "data": [{"molecule": "WCTQSWNNQAWNSPFYNCGEESK [6-8w, human C-terminal WR repeats]", "values": [{"measurement": "aggregation kinetics", "setting": "[1]", "result": "slower aggregation kinetics"}, {"measurement": "peptide solubility", "setting": "[2]", "result": "relatively higher solubility"}]}, {"molecule": "C[C@@H](O)[C@H](NC(=O)[C@H](CCC(N)=O)NC(=O)[C@H](CC(N)=O)NC(=O)[C@H](CO)NC(=O)[C@H](Cc1c[nH]c2ccccc12)NC(=O)[C@@H](NC(=O)[C@H](CO)NC(=O)[C@H](CC(N)=O)NC(=O)[C@H](CC(N)=O)NC(=O)[C@H](Cc1c[nH]c2ccccc12)NC(=O)[C@@H](NC(=O)[C@H](CCC(N)=O)NC(=O)[C@H](CC(N)=O)NC(=O)[C@H](CO)NC(=O)[C@@H](N)Cc1c[nH]c2ccccc12)[C@@H](C)O)[C@@H](C)O)C(=O)N[C@@H](CCCNC(=N)N)C(=O)N[C@@H](CCCNC(=N)N)C(=O)N[C@@H](CCCNC(=N)N)C(=O)N[C@@H](CCCNC(=N)N)C(=O)N[C@@H](CCCNC(=N)N)C(=O)N[C@@H](CCCNC(=N)N)C(=O)N[C@@H](CCCCN)C(=O)N[C@@H](CCCCN)C(=O)N[C@@H](CS)C(=O)O", "note": "[1-3wRRK] (H-WSNQTWNNSTWSNQTRRRRRRKKC-OH; N-terminus and C-terminus assumed)", "values": [{"measurement": "peptide solubility", "setting": "[2]", "result": "very soluble"}]}, {"molecule": "WNTQTWCTQSWNNQAWNSPFYNCGEESK [5-8w, human C-terminal WR repeats]", "values": [{"measurement": "aggregation kinetics", "setting": "[1]", "result": "slower aggregation kinetics"}, {"measurement": "peptide solubility", "setting": "[2]", "result": "relatively higher solubility"}]}, {"molecule": "WSNQTWNNSTWSNQTQNIQSWSNHSRRRKK [1-4wRK]", "values": [{"measurement": "cross-correlation (DNA bridging)", "setting": "[3]; 0.9 μM peptides", "result": "small degree of cross-correlation"}, {"measurement": "lowest peptide concentration giving cross-correlation", "setting": "[3]; FCCS titration", "result": 1, "unit": "µM"}, {"measurement": "cooperativity n", "setting": "[4]", "result": "3.3±1.2"}, {"measurement": "binding constant Ka", "setting": "[4]; n=3", "result": "340 ± 110", "unit": "nM"}, {"measurement": "peptide concentration giving visible precipitates of fluorescent proteins", "setting": "[5]", "result": "~0.3", "unit": "mg/mL"}, {"measurement": "peptide concentration giving completely bound peptide:nucleic acid complexes", "setting": "[6]", "result": "60 to 250", "unit": "nM"}, {"measurement": "aggregation without DNA", "setting": "[7]; 0.2 mg/mL peptide", "result": "aggregates even without DNA"}, {"measurement": "potency in driving DNA:peptide LLPS", "setting": "[7]; turbidity Abs350 nm>0.07 = LLPS positive", "result": "more effective than TAT at higher concentrations of DNA"}, {"measurement": "pKd", "setting": "[8]; fEMSA, read-out: dsDNA affinity (50% free DNA)", "result": "~6.00"}]}, {"molecule": "C[C@@H](O)[C@H](NC(=O)[C@H](CCC(N)=O)NC(=O)[C@H](CC(N)=O)NC(=O)[C@H](CC(N)=O)NC(=O)[C@H](Cc1c[nH]c2ccccc12)NC(=O)[C@@H](NC(=O)[C@@H]1CCCN1C(=O)[C@H](CC(N)=O)NC(=O)[C@@H](NC(=O)[C@H](Cc1c[nH]c2ccccc12)NC(=O)[C@@H](NC(=O)[C@H](CCC(N)=O)NC(=O)[C@H](CO)NC(=O)[C@H](CO)NC(=O)[C@H](Cc1c[nH]c2ccccc12)NC(=O)[C@@H](NC(=O)[C@@H]1CCCN1C(=O)[C@H](CC(N)=O)NC(=O)[C@@H](NC(=O)[C@H](Cc1c[nH]c2ccccc12)NC(=O)[C@@H](NC(=O)[C@H](CCC(N)=O)NC(=O)[C@H](CO)NC(=O)CNC(=O)[C@@H](N)Cc1c[nH]c2ccccc12)[C@@H](C)O)[C@@H](C)O)[C@@H](C)O)[C@@H](C)O)[C@@H](C)O)[C@@H](C)O)C(=O)N[C@@H](CCCCN)C(=O)O", "note": "[m1-5w] (H-WGSQTWTNPTWSSQTWTNPTWNNQTK-OH; N-terminus and C-terminus assumed)", "values": [{"measurement": "peptide solubility", "setting": "[2]", "result": "relatively higher solubility"}]}, {"molecule": "NANOG WT", "values": [{"measurement": "cross-correlation of differentially labeled DNAs", "setting": "[9]", "result": "significant cross-correlation"}, {"measurement": "lowest concentration giving cross-correlation", "setting": "[9]", "result": "~30", "unit": "nM"}, {"measurement": "proximity of separate DNAs", "setting": "[10]", "result": "≤ 70", "unit": "Å"}, {"measurement": "pKd", "setting": "[8]; full-length NANOG, for comparison, read-out: dsDNA affinity", "result": "7.22 to 7.52"}]}, {"molecule": "C[C@H](NC(=O)[C@H](CCC(N)=O)NC(=O)[C@H](CO)NC(=O)[C@H](CO)NC(=O)[C@H](Cc1c[nH]c2ccccc12)NC(=O)[C@@H](NC(=O)[C@@H]1CCCN1C(=O)[C@H](CC(N)=O)NC(=O)[C@@H](NC(=O)[C@@H](N)Cc1c[nH]c2ccccc12)[C@@H](C)O)[C@@H](C)O)C(=O)N[C@@H](Cc1c[nH]c2ccccc12)C(=O)N[C@H](C(=O)N[C@@H](C)C(=O)N[C@@H](CCC(N)=O)C(=O)N[C@@H](CO)C(=O)N[C@@H](Cc1c[nH]c2ccccc12)C(=O)N[C@@H](CC(N)=O)C(=O)NCC(=O)N[C@@H](CCC(N)=O)C(=O)N1CCC[C@H]1C(=O)N[C@@H](Cc1c[nH]c2ccccc12)C(=O)N[C@@H](CC(N)=O)C(=O)N[C@@H](C)C(=O)N[C@@H](C)C(=O)N1CCC[C@H]1C(=O)N[C@@H](CCCCN)C(=O)O)[C@@H](C)O", "note": "[m6-10w] (H-WTNPTWSSQAWTAQSWNGQPWNAAPK-OH; N-terminus and C-terminus assumed)", "values": [{"measurement": "peptide solubility", "setting": "[2]", "result": "relatively higher solubility"}]}]}
